From PMC3654553, “A PPARγ ligand present in Actinidia fruit (Actinidia chrysantha) is identified as dilinolenoyl galactosyl glycerol” (Bioscience Reports, 2013)

Key:
[1] = biological target: T1, PPARγ (peroxisome-proliferator-activated receptor γ) (Homo sapiens, UniProt P37231); test: competitive fluorescence polarization (PolarScreen PPARγ green), time course; intact protein ESI-MS shows no covalent adduct; assay type: binding
T1 construct: gene PPARG
T1 sequence (P37231 231-505 limits assumed): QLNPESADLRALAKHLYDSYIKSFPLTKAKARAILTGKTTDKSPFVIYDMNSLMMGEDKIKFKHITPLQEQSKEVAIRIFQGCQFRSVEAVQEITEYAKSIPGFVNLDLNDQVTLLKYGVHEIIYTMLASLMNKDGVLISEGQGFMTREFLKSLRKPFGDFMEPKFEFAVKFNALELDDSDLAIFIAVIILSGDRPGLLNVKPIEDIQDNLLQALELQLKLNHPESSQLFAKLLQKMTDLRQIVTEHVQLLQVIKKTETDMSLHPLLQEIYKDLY

[2] = biological target: T1, PPARγ (peroxisome-proliferator-activated receptor γ); test: competitive fluorescence polarization of HPLC fraction […], dilution series and time course; assay type: binding
[3] = biological target: T1, PPARγ (peroxisome-proliferator-activated receptor γ)

`CC/C=C\C/C=C\C/C=C\CCCCCCCC(=O)OC[C@H](CO[C@@H]1O[C@H](CO)[C@H](O)[C@H](O)[C@H]1O)OC(=O)CCCCCCC/C=C\C/C=C\C/C=C\CC` [compound 11, DLGG] showed an IC50 [1] of 1.64 µM.
For `CCCCC/C=C\C/C=C\CCCCCCCC(=O)O` [compound 6, linoleic acid], the “competitive fluorescence polarization of HPLC fraction 6, dilution series and ti” value [2] was “α-linolenic acid and linoleic acid bind to PPARγ immediately under the assay conditions used”.
For `CC/C=C\C/C=C\C/C=C\CCCCCCCC(=O)O` [compound 5, α-linolenic acid], the “competitive fluorescence polarization of HPLC fraction 5, dilution series” value [3] was “α-linolenic acid and linoleic acid bind to PPARγ immediately under the assay conditions used”.
